In paper PMC12150326 (The Journal of Organic Chemistry, 2025):

How the values were obtained:
Assay type in all cases: cell-based, human
786-0 = system: 786-0
Procedure, shortened: (§1)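 Concentrations tested in the NCI-60 panel were 0.01, 0.1, 1, 10 and 100 μM. The endpoint taken forward was TGI, whose pattern across lines was run through COMPARE alongside earlier tubulin inhibitors.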

BT-549 = system: BT-549
Procedure, shortened: as §1

CAKI-1 = system: CAKI-1
Procedure, shortened: as §1

CCRF-CEM = system: CCRF-CEM
Procedure, shortened: (§2)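 First, compounds went into the NCI-60 cell panel. Next, they were dosed at 0.01, 0.1, 1, 10 and 100 μM. Finally, TGI levels fed a COMPARE analysis against prior tubulin-inhibitor data.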

HCC-2998 = system: HCC-2998
Procedure, shortened: as §1

HCT-15 = system: HCT-15
Procedure, shortened: as §1

HS 578T = system: HS 578T
Procedure, shortened: as §1

K-562 = system: K-562
Procedure, shortened: as §1

LOX IMVI = system: LOX IMVI
Procedure, shortened: as §2

M14 = system: M14
Procedure, shortened: as §1

MDA-MB-435 = system: MDA-MB-435
Procedure, shortened: as §2

MOLT-4 = system: MOLT-4
Procedure, shortened: as §1

NCI/ADR-RES = system: NCI/ADR-RES
Procedure, shortened: as §1

OVCAR-5 = system: OVCAR-5
Procedure, shortened: as §1

OVCAR-8 = system: OVCAR-8
Procedure, shortened: as §1

RPMI-8226 = system: RPMI-8226
Procedure, shortened: as §1

RXF 393 = system: RXF 393
Procedure, shortened: as §1

SF-539 = system: SF-539
Procedure, shortened: as §1

SNB-19 = system: SNB-19
Procedure, shortened: as §2

SNB-75 = system: SNB-75
Procedure, shortened: as §1

SW-620 = system: SW-620
Procedure, shortened: as §1

T-47D = system: T-47D
Procedure, shortened: as §1

TK-10 = system: TK-10
Procedure, shortened: as §2

U251 = system: U251
Procedure, shortened: as §1

UACC-257 = system: UACC-257
Procedure, shortened: as §1

UACC-62 = system: UACC-62
Procedure, shortened: as §2

UO-31 = system: UO-31
Procedure, shortened: as §1

For COc1cc(C)c(-c2ccc(=O)c(OC)cc2C)c(OC)c1OC (single isomer, unassigned) [(aR)-iso-6], the Log10GI50 (786-0) was greater than -4.00 Molar, the Log10LC50 (786-0) was greater than -4.00 Molar and the Log10TGI (786-0) was greater than -4.00 Molar. The Log10GI50 (BT-549) was greater than -4.00 Molar, the Log10LC50 (BT-549) was greater than -4.00 Molar and the Log10TGI (BT-549) was greater than -4.00 Molar. The Log10GI50 (CAKI-1) was greater than -4.00 Molar, the Log10LC50 (CAKI-1) was greater than -4.00 Molar and the Log10TGI (CAKI-1) was greater than -4.00 Molar. The Log10GI50 (CCRF-CEM) was greater than -4.00 Molar, the Log10LC50 (CCRF-CEM) was greater than -4.00 Molar and the Log10TGI (CCRF-CEM) was greater than -4.00 Molar. For the same compound, the Log10GI50 (HCC-2998) was greater than -4.00 Molar, the Log10LC50 (HCC-2998) was greater than -4.00 Molar and the Log10TGI (HCC-2998) was greater than -4.00 Molar. It also gave a Log10GI50 (HCT-15) greater than -4.00 Molar, a Log10LC50 (HCT-15) greater than -4.00 Molar and a Log10TGI (HCT-15) greater than -4.00 Molar. The Log10GI50 (HS 578T) was greater than -4.00 Molar, the Log10LC50 (HS 578T) was greater than -4.00 Molar and the Log10TGI (HS 578T) was greater than -4.00 Molar. The Log10GI50 (K-562) was greater than -4.00 Molar, the Log10LC50 (K-562) was greater than -4.00 Molar and the Log10TGI (K-562) was greater than -4.00 Molar. It also gave a Log10GI50 (LOX IMVI) greater than -4.00 Molar, a Log10LC50 (LOX IMVI) greater than -4.00 Molar and a Log10TGI (LOX IMVI) greater than -4.00 Molar. The Log10GI50 (M14) was greater than -4.00 Molar, the Log10LC50 (M14) was greater than -4.00 Molar and the Log10TGI (M14) was greater than -4.00 Molar. The Log10GI50 (MDA-MB-435) was greater than -4.00 Molar, the Log10LC50 (MDA-MB-435) was greater than -4.00 Molar and the Log10TGI (MDA-MB-435) was greater than -4.00 Molar. For the same compound, the Log10GI50 (MOLT-4) was greater than -4.00 Molar, the Log10LC50 (MOLT-4) was greater than -4.00 Molar and the Log10TGI (MOLT-4) was greater than -4.00 Molar. The Log10GI50 (NCI/ADR-RES) was greater than -4.00 Molar, the Log10LC50 (NCI/ADR-RES) was greater than -4.00 Molar and the Log10TGI (NCI/ADR-RES) was greater than -4.00 Molar. The Log10GI50 (OVCAR-5) was greater than -4.00 Molar, the Log10LC50 (OVCAR-5) was greater than -4.00 Molar and the Log10TGI (OVCAR-5) was greater than -4.00 Molar. It also gave a Log10GI50 (OVCAR-8) greater than -4.00 Molar, a Log10LC50 (OVCAR-8) greater than -4.00 Molar and a Log10TGI (OVCAR-8) greater than -4.00 Molar. The Log10GI50 (RPMI-8226) was greater than -4.00 Molar, the Log10LC50 (RPMI-8226) was greater than -4.00 Molar and the Log10TGI (RPMI-8226) was greater than -4.00 Molar. For the same compound, the Log10GI50 (RXF 393) was greater than -4.00 Molar, the Log10LC50 (RXF 393) was greater than -4.00 Molar and the Log10TGI (RXF 393) was greater than -4.00 Molar. It also gave a Log10GI50 (SF-539) greater than -4.00 Molar, a Log10LC50 (SF-539) greater than -4.00 Molar and a Log10TGI (SF-539) greater than -4.00 Molar. The Log10GI50 (SNB-19) was greater than -4.00 Molar, the Log10LC50 (SNB-19) was greater than -4.00 Molar and the Log10TGI (SNB-19) was greater than -4.00 Molar. It also gave a Log10GI50 (SNB-75) of -4.40 Molar, a Log10LC50 (SNB-75) greater than -4.00 Molar and a Log10TGI (SNB-75) greater than -4.00 Molar. The Log10GI50 (SW-620) was greater than -4.00 Molar, the Log10LC50 (SW-620) was greater than -4.00 Molar and the Log10TGI (SW-620) was greater than -4.00 Molar. The Log10GI50 (T-47D) was greater than -4.00 Molar, the Log10LC50 (T-47D) was greater than -4.00 Molar and the Log10TGI (T-47D) was greater than -4.00 Molar. The Log10GI50 (TK-10) was greater than -4.00 Molar, the Log10LC50 (TK-10) was greater than -4.00 Molar and the Log10TGI (TK-10) was greater than -4.00 Molar. It also gave a Log10GI50 (U251) greater than -4.00 Molar, a Log10LC50 (U251) greater than -4.00 Molar and a Log10TGI (U251) greater than -4.00 Molar. For the same compound, the Log10GI50 (UACC-257) was greater than -4.00 Molar, the Log10LC50 (UACC-257) was greater than -4.00 Molar and the Log10TGI (UACC-257) was greater than -4.00 Molar. The Log10GI50 (UACC-62) was greater than -4.00 Molar, the Log10LC50 (UACC-62) was greater than -4.00 Molar and the Log10TGI (UACC-62) was greater than -4.00 Molar. It also gave a Log10GI50 (UO-31) greater than -4.00 Molar, a Log10LC50 (UO-31) greater than -4.00 Molar and a Log10TGI (UO-31) greater than -4.00 Molar.

Work on COc1cc(C)c(-c2ccc(OC)c(=O)cc2C)c(OC)c1OC (single isomer, unassigned) [(aS)-6] yielded a Log10GI50 (786-0) greater than -4.00 Molar, a Log10LC50 (786-0) greater than -4.00 Molar and a Log10TGI (786-0) greater than -4.00 Molar. For the same compound, the Log10GI50 (BT-549) was greater than -4.00 Molar, the Log10LC50 (BT-549) was greater than -4.00 Molar and the Log10TGI (BT-549) was greater than -4.00 Molar. The Log10GI50 (CAKI-1) was greater than -4.00 Molar, the Log10LC50 (CAKI-1) was greater than -4.00 Molar and the Log10TGI (CAKI-1) was greater than -4.00 Molar. For the same compound, the Log10GI50 (CCRF-CEM) was greater than -4.00 Molar, the Log10LC50 (CCRF-CEM) was greater than -4.00 Molar and the Log10TGI (CCRF-CEM) was greater than -4.00 Molar. It also gave a Log10GI50 (HCC-2998) greater than -4.00 Molar, a Log10LC50 (HCC-2998) greater than -4.00 Molar and a Log10TGI (HCC-2998) greater than -4.00 Molar. For the same compound, the Log10GI50 (HCT-15) was greater than -4.00 Molar, the Log10LC50 (HCT-15) was greater than -4.00 Molar and the Log10TGI (HCT-15) was greater than -4.00 Molar. It also gave a Log10GI50 (HS 578T) greater than -4.00 Molar, a Log10LC50 (HS 578T) greater than -4.00 Molar and a Log10TGI (HS 578T) greater than -4.00 Molar. The Log10GI50 (K-562) was -4.38 Molar, the Log10LC50 (K-562) was greater than -4.00 Molar and the Log10TGI (K-562) was greater than -4.00 Molar. It also gave a Log10GI50 (LOX IMVI) greater than -4.00 Molar, a Log10LC50 (LOX IMVI) greater than -4.00 Molar and a Log10TGI (LOX IMVI) greater than -4.00 Molar. For the same compound, the Log10GI50 (M14) was greater than -4.00 Molar, the Log10LC50 (M14) was greater than -4.00 Molar and the Log10TGI (M14) was greater than -4.00 Molar. For the same compound, the Log10GI50 (MDA-MB-435) was -4.14 Molar, the Log10LC50 (MDA-MB-435) was greater than -4.00 Molar and the Log10TGI (MDA-MB-435) was greater than -4.00 Molar. It also gave a Log10GI50 (MOLT-4) greater than -4.00 Molar, a Log10LC50 (MOLT-4) greater than -4.00 Molar and a Log10TGI (MOLT-4) greater than -4.00 Molar. It also gave a Log10GI50 (NCI/ADR-RES) greater than -4.00 Molar, a Log10LC50 (NCI/ADR-RES) greater than -4.00 Molar and a Log10TGI (NCI/ADR-RES) greater than -4.00 Molar. It also gave a Log10GI50 (OVCAR-5) greater than -4.00 Molar, a Log10LC50 (OVCAR-5) greater than -4.00 Molar and a Log10TGI (OVCAR-5) greater than -4.00 Molar. The Log10GI50 (OVCAR-8) was greater than -4.00 Molar, the Log10LC50 (OVCAR-8) was greater than -4.00 Molar and the Log10TGI (OVCAR-8) was greater than -4.00 Molar. For the same compound, the Log10GI50 (RPMI-8226) was greater than -4.00 Molar, the Log10LC50 (RPMI-8226) was greater than -4.00 Molar and the Log10TGI (RPMI-8226) was greater than -4.00 Molar. The Log10GI50 (RXF 393) was greater than -4.00 Molar, the Log10LC50 (RXF 393) was greater than -4.00 Molar and the Log10TGI (RXF 393) was greater than -4.00 Molar. It also gave a Log10GI50 (SF-539) greater than -4.00 Molar, a Log10LC50 (SF-539) greater than -4.00 Molar and a Log10TGI (SF-539) greater than -4.00 Molar. The Log10GI50 (SNB-19) was greater than -4.00 Molar, the Log10LC50 (SNB-19) was greater than -4.00 Molar and the Log10TGI (SNB-19) was greater than -4.00 Molar. For the same compound, the Log10GI50 (SNB-75) was greater than -4.00 Molar, the Log10LC50 (SNB-75) was greater than -4.00 Molar and the Log10TGI (SNB-75) was greater than -4.00 Molar. It also gave a Log10GI50 (SW-620) greater than -4.00 Molar, a Log10LC50 (SW-620) greater than -4.00 Molar and a Log10TGI (SW-620) greater than -4.00 Molar. The Log10GI50 (T-47D) was greater than -4.00 Molar, the Log10LC50 (T-47D) was greater than -4.00 Molar and the Log10TGI (T-47D) was greater than -4.00 Molar. For the same compound, the Log10GI50 (TK-10) was greater than -4.00 Molar, the Log10LC50 (TK-10) was greater than -4.00 Molar and the Log10TGI (TK-10) was greater than -4.00 Molar. The Log10GI50 (U251) was greater than -4.00 Molar, the Log10LC50 (U251) was greater than -4.00 Molar and the Log10TGI (U251) was greater than -4.00 Molar. The Log10GI50 (UACC-257) was greater than -4.00 Molar, the Log10LC50 (UACC-257) was greater than -4.00 Molar and the Log10TGI (UACC-257) was greater than -4.00 Molar. The Log10GI50 (UACC-62) was greater than -4.00 Molar, the Log10LC50 (UACC-62) was greater than -4.00 Molar and the Log10TGI (UACC-62) was greater than -4.00 Molar. The Log10GI50 (UO-31) was greater than -4.00 Molar, the Log10LC50 (UO-31) was greater than -4.00 Molar and the Log10TGI (UO-31) was greater than -4.00 Molar.
